Experimental data from the supplement of paper PMC10307832.

Assays:
Test in all cases: relative viability (nuclei count vs DMSO), 5 days (fraction); higher = more cells survive
GW-2580 + OSI-027 = compound: COC1=CC=C(C=C1)COC2=C(C=C(C=C2)CC3=CN=C(N=C3N)N)OC [GW-2580] + COc1cccc2cc(-c3nc([C@H]4CC[C@H](C(=O)O)CC4)n4ncnc(N)c34)[nH]c12 [OSI-027] (partner 0.5 µM)
In short: (§1)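 Each reported value is a median over duplicate plates. It expresses relative viability: treated-well nuclei count divided by vehicle-well nuclei count. Lung cancer cell lines in 1536-well plates were dosed by pin tool a day after seeding, alone with one drug or with a fixed anchor-drug dose plus five library-drug doses (not always all listed) in √10 steps, and nuclei were counted after 5 days.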

GW-2580 + Phenformin = compound: COC1=CC=C(C=C1)COC2=C(C=C(C=C2)CC3=CN=C(N=C3N)N)OC [GW-2580] + N=C(N)NC(=N)NCCc1ccccc1 [Phenformin] (partner 250 µM)
In short: as §1

GW-2580 + Olaparib = compound: COC1=CC=C(C=C1)COC2=C(C=C(C=C2)CC3=CN=C(N=C3N)N)OC [GW-2580] + O=C(c1cc(Cc2n[nH]c(=O)c3ccccc23)ccc1F)N1CCN(C(=O)C2CC2)CC1 [Olaparib] (partner 8 µM)
In short: as §1

Fedratinib + Luminespib = compound: Cc1cnc(Nc2ccc(OCCN3CCCC3)cc2)nc1Nc1cccc(S(=O)(=O)NC(C)(C)C)c1 [Fedratinib] + CCNC(=O)c1noc(-c2cc(C(C)C)c(O)cc2O)c1-c1ccc(CN2CCOCC2)cc1 [Luminespib] (partner 0.01 µM)
In short: as §1

Fedratinib + Pemetrexed = compound: Cc1cnc(Nc2ccc(OCCN3CCCC3)cc2)nc1Nc1cccc(S(=O)(=O)NC(C)(C)C)c1 [Fedratinib] + Nc1nc2[nH]cc(CCc3ccc(C(=O)N[C@@H](CCC(=O)O)C(=O)O)cc3)c2c(=O)[nH]1 [Pemetrexed] (partner 0.2 µM)
In short: as §1

Cell Line: UMC-11
- relative viability (GW-2580 + OSI-027; first compound 0.08 µM): 0.531
- relative viability (GW-2580 + OSI-027; first compound 0.8 µM): 0.508
- relative viability (GW-2580 + OSI-027; first compound 2.53 µM): 0.515
- relative viability (GW-2580 + OSI-027; first compound 8 µM): 0.439
- relative viability (GW-2580 + Phenformin; first compound 0.08 µM): 0.349
- relative viability (GW-2580 + Phenformin; first compound 0.8 µM): 0.311
- relative viability (GW-2580 + Phenformin; first compound 2.53 µM): 0.388
- relative viability (GW-2580 + Phenformin; first compound 8 µM): 0.343
- relative viability (GW-2580 + Olaparib; first compound 0.08 µM): 0.358
- relative viability (GW-2580 + Olaparib; first compound 0.8 µM): 0.375
- relative viability (GW-2580 + Olaparib; first compound 2.53 µM): 0.464
- relative viability (GW-2580 + Olaparib; first compound 8 µM): 0.436
- relative viability (Fedratinib + Luminespib; first compound 0.1 µM): 0.984
- relative viability (Fedratinib + Luminespib; first compound 0.3162 µM): 0.887
- relative viability (Fedratinib + Luminespib; first compound 1 µM): 0.758
- relative viability (Fedratinib + Pemetrexed; first compound 0.1 µM): 0.756
- relative viability (Fedratinib + Pemetrexed; first compound 0.3162 µM): 0.66
- relative viability (Fedratinib + Pemetrexed; first compound 1 µM): 0.665
